Experimental data: PubChem BioAssay (NCI)
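These data come from cells grown in 96-well plates and exposed to compound for 48 hours at five concentrations. At the TGI there is no net growth.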

What was measured:
Experiment in all cases: NCI tumour cell line growth inhibition, 48 h
[1] = system: NCI-H226 lung
[2] = system: SF-539 CNS
[3] = system: CAKI-1 renal
[4] = system: NCI-H460 lung
[5] = system: A549 NSCLC
[6] = system: OVCAR-3 ovarian
[7] = system: SR leukemia
[8] = system: UACC-257 melanoma
[9] = system: SF-295 CNS
[10] = system: HCT-116 colon
[11] = system: XF 498 CNS
[12] = system: RPMI-8226 leukemia
[13] = system: DMS 273 small cell lung
[14] = system: UO-31 renal
[15] = system: KM12 colon
[16] = system: UACC-62 melanoma
[17] = system: IGROV1 ovarian
[18] = system: DLD-1 colon
[19] = system: HOP-92 NSCLC
[20] = system: HCT-15 colon
[21] = system: HT29 colon
[22] = system: 786-0 renal
[23] = system: OVCAR-5 ovarian
[24] = system: SNB-75 CNS
[25] = system: NCI-H23 lung
[26] = system: U251 CNS
[27] = system: COLO 205 colon
[28] = system: SNB-19 CNS
[29] = system: HL-60(TB) leukemia
[30] = system: SK-MEL-28 melanoma
[31] = system: HCC-2998 colon
[32] = system: ACHN renal
[33] = system: HOP-62 NSCLC
[34] = system: KM20L2 colon
[35] = system: SW-620 colon
[36] = system: CCRF-CEM leukemia
[37] = system: MALME-3M melanoma
[38] = system: K-562 leukemia
[39] = system: M19-MEL melanoma
[40] = system: SK-MEL-5 melanoma
[41] = system: DMS 114 small cell lung
[42] = system: OVCAR-4 ovarian
[43] = system: SK-MEL-2 melanoma
[44] = system: NCI-H522 lung
[45] = system: MOLT-4 leukemia
[46] = system: SF-268 CNS
[47] = system: OVCAR-8 ovarian
[48] = system: TK-10 renal
[49] = system: LXFL 529 NSCLC
[50] = system: M14 melanoma
[51] = system: LOX IMVI melanoma
[52] = system: SNB-78 CNS
[53] = system: EKVX NSCLC
[54] = system: SN12C renal
[55] = system: RXF 393 renal

O=C(c1ccccc1)c1c(CNCc2ccccc2)n(C(=O)c2ccccc2)c2ccccc12 gave a TGI [1] of over 100 µM, a TGI [2] of over 100 µM and a TGI [3] of over 100 µM. It also gave a TGI [4] of over 100 µM, a TGI [5] of over 100 µM and a TGI [6] of 65.7 µM. The TGI [7] was 80.7 µM, the TGI [8] was over 100 µM and the TGI [9] was 41.7 µM. It also gave a TGI [10] of over 100 µM, a TGI [11] of over 100 µM and a TGI [12] of 55.1 µM. The TGI [13] was over 100 µM, the TGI [14] was 56.1 µM and the TGI [15] was 87.8 µM. The TGI [16] was over 100 µM, the TGI [17] was over 100 µM and the TGI [18] was over 100 µM. For the same compound, the TGI [19] was 82.1 µM, the TGI [20] was over 100 µM and the TGI [21] was over 100 µM. For the same compound, the TGI [22] was over 100 µM, the TGI [23] was over 100 µM and the TGI [24] was 27.5 µM. It also gave a TGI [25] of over 100 µM, a TGI [26] of over 100 µM and a TGI [27] of over 100 µM. For the same compound, the TGI [28] was over 100 µM, the TGI [29] was 98.7 µM and the TGI [30] was over 100 µM. For the same compound, the TGI [31] was over 100 µM, the TGI [32] was over 100 µM and the TGI [33] was over 100 µM. It also gave a TGI [34] of over 100 µM, a TGI [35] of over 100 µM and a TGI [36] of over 100 µM. For the same compound, the TGI [37] was over 100 µM, the TGI [38] was over 100 µM and the TGI [39] was over 100 µM. The TGI [40] was over 100 µM, the TGI [41] was over 100 µM and the TGI [42] was over 100 µM. For the same compound, the TGI [43] was over 100 µM, the TGI [44] was 81.8 µM and the TGI [45] was 65.5 µM. It also gave a TGI [46] of over 100 µM, a TGI [47] of over 100 µM and a TGI [48] of over 100 µM. For the same compound, the TGI [49] was over 100 µM and the TGI [50] was over 100 µM.

In the case of Cc1cc(-c2ccccc2)cc2[n+]1CC=C2, the TGI [1] was over 100 µM, the TGI [2] was over 100 µM and the TGI [3] was over 100 µM. The TGI [4] was over 100 µM, the TGI [5] was over 100 µM and the TGI [8] was over 100 µM. It also gave a TGI [9] of over 100 µM, a TGI [10] of over 100 µM and a TGI [51] of over 100 µM. For the same compound, the TGI [13] was over 100 µM, the TGI [14] was over 100 µM and the TGI [15] was over 100 µM. It also gave a TGI [52] of over 100 µM, a TGI [18] of over 100 µM and a TGI [19] of 94.8 µM. The TGI [21] was over 100 µM, the TGI [22] was over 100 µM and the TGI [23] was over 100 µM. For the same compound, the TGI [24] was over 100 µM, the TGI [25] was over 100 µM and the TGI [26] was over 100 µM. For the same compound, the TGI [27] was over 100 µM, the TGI [28] was over 100 µM and the TGI [29] was over 100 µM. For the same compound, the TGI [30] was over 100 µM, the TGI [31] was over 100 µM and the TGI [32] was over 100 µM. For the same compound, the TGI [33] was over 100 µM, the TGI [53] was over 100 µM and the TGI [34] was over 100 µM. For the same compound, the TGI [35] was over 100 µM, the TGI [37] was over 100 µM and the TGI [54] was over 100 µM. It also gave a TGI [39] of over 100 µM, a TGI [41] of over 100 µM and a TGI [42] of over 100 µM. For the same compound, the TGI [43] was over 100 µM, the TGI [44] was over 100 µM and the TGI [46] was over 100 µM. The TGI [47] was over 100 µM, the TGI [48] was over 100 µM and the TGI [49] was over 100 µM. The TGI [50] was over 100 µM and the TGI [55] was 97.6 µM.
